Results taken from patent publication US20060128738A1, “Treatment of interstitial cystitis using cannabinoid analogs” (Indevus Pharmaceuticals, Inc., priority 2004, published 2006).

Tested on: cyclophosphamide-induced bladder overactivity
Test: Subacute bladder irritation by cyclophosphamide, cystometrograms, i.v. administration
Format: in vivo
Settings: CYP-treated rats, after administration
Protocol: Cystometrograms (CMGs) are performed under urethane anesthesia (1 g/kg s.c.) using a catheter inserted into the bladder through the bladder dome via a midline abdominal incision. Saline is infused at a rate of 0.04 ml/min to elicit repetitive bladder contractions. Effects of intravenous (i.v.) injection of cannabinoid analogs and analogs of (6aR,10aR)-Δ^8-Tetrahydrocannabinol-11-oic Acids on bladder overactivity induced by either intravesical administration of acetic acid solution or one day treatment with cyclophosphamide are investigated. […] Thus, these Compound analogs can be effective for the treatment of pain and urinary frequency symptoms in patients with painful bladder syndrome/interstitial cystitis.
One day after intraperitoneal injection of cyclophosphamide (CYP, 150 mg/kg), control CMGs are recorded for 1 to 2 hour prior to i.v. administration of Compound analog or vehicle. See, example i, above. Following administration of Compound analog, changes in cystometric parameters such as ICIs, MVP, PT and BP are recorded to evaluate the effects of Compound analog on cyclophosphamide-induced bladder overactivity.

CCCCCCC(C)(C)c1cc(O)c2c(c1)OC(C)(C)[C@@H]1CC=C(C(=O)O)C[C@@H]21 [IP-751]
No significant changes: change in baseline pressure (BP) | change in maximum voiding pressure (MVP) | change in pressure threshold (PT)
